Among the data in US20220324835A1 (Nurix Therapeutics, Inc., priority 2018, published 2022) are IC50, Kd and fold induction values, retold here.

One assay addresses Cbl-b (Homo sapiens, UniProt Q13191). Briefly: Cbl-b inhibition assay (Cbl-b activity assay, FRET, Biological Example 1; 100 mM NaCl, 60 nM Src kinase). The class given is biochemical. The settings on record: upper bound stated in text lists; read-out: IC50 values in the Cbl-b inhibition assay of Biological Example 1. In a few lines: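 TR-FRET assay using N-terminal biotinylated Avi-tagged Cbl-b bound to streptavidin-terbium, Src kinase for Cbl-b phosphorylation, and UbcH5B irreversibly conjugated to Bodipy-Fluorescein-ubiquitin. Phosphorylated Cbl-b binds UbcH5B-Ub, bringing the fluorophores together; inhibition is read as loss of FRET signal.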

For another assay, the target named is Cbl-b (residues 36-427) (Homo sapiens, UniProt Q13191). Briefly: Cbl-b binding assay (SPR, Biacore T200). Particulars: 20° C., 1:1 binding model. In a few lines:
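NeutrAvidin capture chip, 20° C; 50 s injections at 50 μl/min, 90-180 s dissociation; 0.3 M NaCl regeneration. Asterisked column: 50 mM NaCl buffer and 30 nM Src kinase in place of 100 mM NaCl and 60 nM Src kinase. 1:1 fit.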

For assay [1], the system named is T-cell. In words: CD25 cell surface staining on T-cells stimulated with anti-CD3 antibody alone (Biological Example 2). It counts as cell-based, human. Particulars: T-cell, fold change over baseline, primary human total T-cells, read-out: CD25 staining Anti-CD3 stimulation; for fold induction at 1 µM: 1 μM Cbl-b inhibitor; for fold induction at 8 µM: 8 μM Cbl-b inhibitor.

Assay [2] has as its system T-cell. In words: IL-2 secretion from T-cells stimulated with anti-CD3 antibody alone (Biological Example 2). The class given is cell-based, human. Particulars: T-cell, fold change over baseline, primary human total T-cells, read-out: IL-2 secretion Anti-CD3 stimulation; for fold induction at 1 µM: 1 μM Cbl-b inhibitor; for fold induction at 8 µM: 8 μM Cbl-b inhibitor.

pIC50, pKd: −log10 of the molar value. A value given as a limit tells only on which side of the number the result lay.

Cbl-b, sequence (Q13191 36-427): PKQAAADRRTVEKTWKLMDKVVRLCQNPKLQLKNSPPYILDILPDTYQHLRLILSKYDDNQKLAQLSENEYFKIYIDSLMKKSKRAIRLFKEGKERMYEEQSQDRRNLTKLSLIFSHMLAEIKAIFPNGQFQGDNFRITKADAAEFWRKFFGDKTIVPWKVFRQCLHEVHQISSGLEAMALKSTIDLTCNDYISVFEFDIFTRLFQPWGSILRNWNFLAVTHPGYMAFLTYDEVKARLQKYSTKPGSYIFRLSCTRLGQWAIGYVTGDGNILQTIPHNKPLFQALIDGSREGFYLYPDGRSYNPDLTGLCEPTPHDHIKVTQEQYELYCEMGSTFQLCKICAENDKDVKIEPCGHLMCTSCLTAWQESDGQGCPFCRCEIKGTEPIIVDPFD
Cbl-b (residues 36-427), sequence (Q13191 36-427): as above

As a reminder, the pIC50 is the negative decadic logarithm of the IC50, by convention in mol/L. As a reminder, the pKd is the negative decadic logarithm of the Kd, by convention in mol/L. As to `C[C@H](Cc1nncn1C)c1cccc(NC(=O)c2cc(S(C)(=O)=O)cc(C3CC3)n2)c1` [Compound 198, 6-cyclopropyl-N-[3-[(1R)-1-methyl-2-(4-methyl-1,2,4-triazol-3-yl)ethyl]phenyl]-4-methylsulfonyl-pyridine-2-carboxamide], the pIC50 at Cbl-b is at least 6.30. Also, on Cbl-b (residues 36-427), the pKd was 6.52 to 7.00. Also, in the assay on T-cell [1], the fold induction at 1 µM was in the range of 0.801 to 1 and the fold induction at 8 µM was above 1. Further, in the assay with T-cell [2], the fold induction at 1 µM fell in the range of 0.101 to 0.15 and the fold induction at 8 µM is above 0.201.

For `C[C@H](Cc1nncn1C)c1cccc(NC(=O)c2cc(S(N)(=O)=O)cc(C(F)(F)F)n2)c1` [Compound 200, (R)-N-(3-(1-(4-methyl-4H-1,2,4-triazol-3-yl)propan-2-yl)phenyl)-4-sulfamoyl-6-(trifluoromethyl)picolinamide], the negative logarithm of the IC50 (pIC50) at Cbl-b is at least 6.30. For the same molecule, the negative-log Kd (pKd) at Cbl-b (residues 36-427) was 6.00 to 6.52. In addition, the fold induction at 1 µM with T-cell [1] is 0.801 to 1; in the assay on T-cell [2], below 0.05. The fold induction at 8 µM was above 1 in the assay on T-cell [1] and 0.051 to 0.1 in the assay on T-cell [2].

In the case of `CNS(=O)(=O)c1cc(C(=O)Nc2cccc([C@H](C)Cc3nncn3C)c2)nc(C(F)(F)F)c1` [Compound 201, (R)-N-(3-(1-(4-methyl-4H-1,2,4-triazol-3-yl)propan-2-yl)phenyl)-4-(N-methylsulfamoyl)-6-(trifluoromethyl)picolinamide], the negative logarithm of the IC50 (pIC50) on Cbl-b is at least 6.30. Also, at Cbl-b (residues 36-427), the negative-log Kd (pKd) is 6.00 to 6.52. Also, in the assay with T-cell [1], the fold induction at 1 µM lay within 0.801 to 1 and the fold induction at 8 µM was above 1. In the assay with T-cell [2], the fold induction at 1 µM is 0.151 to 0.2 and the fold induction at 8 µM was above 0.201.

On to `C[C@H](Cc1nncn1C)c1cccc(NC(=O)c2cc(O[C@H]3CC[C@@H](O)C3)ccn2)c1` [Compound 206, 4-((1S,3R)-3-hydroxycyclopentyloxy)-N-(3-((R)-1-(4-methyl-4H-1,2,4-triazol-3-yl)propan-2-yl)phenyl)picolinamide], for which the negative-log IC50 (pIC50) on Cbl-b is at least 6.00. This molecule gave a negative-log Kd (pKd) at Cbl-b (residues 36-427) of 6.00 to 6.52. For the same molecule, in the assay with T-cell [1], the fold induction at 1 µM fell in the range of 0.801 to 1 and the fold induction at 8 µM is 0.801 to 1. In the assay with T-cell [2], the fold induction at 1 µM was below 0.05 and the fold induction at 8 µM fell in the range of 0.051 to 0.1.

Turning to `Cc1ccc(C(=O)Nc2cccc([C@H](C)Cc3nnc[nH]3)c2)nc1C1CC1` [Compound 212, (R)-N-(3-(1-(4H-1,2,4-triazol-3-yl)propan-2-yl)phenyl)-6-cyclopropyl-5-methylpicolinamide], at Cbl-b, the pIC50 was at least 6.30. On Cbl-b (residues 36-427), this molecule had a negative logarithm of the Kd (pKd) of 5.52 to 6.00. In addition, in the assay on T-cell [1], the fold induction at 1 µM was below 0.6 and the fold induction at 8 µM is below 0.6. Besides, in the assay with T-cell [2], the fold induction at 1 µM is below 0.05 and the fold induction at 8 µM was below 0.05.

As to `Cc1conc1C[C@@H](C)c1cccc(NC(=O)c2ccnc(C(F)(F)F)n2)c1` [Compound 213a, (R)-N-(3-(1-(4-methylisoxazol-3-yl)propan-2-yl)phenyl)-2-(trifluoromethyl)pyrimidine-4-carboxamide], the pIC50 on Cbl-b was at least 6.30. Further, the pKd at Cbl-b (residues 36-427) was 6.52 to 7.00. For the same molecule, the values for the fold induction at 1 µM in the assay with T-cell [1] and with T-cell [2] were 0.801 to 1 and 0.051 to 0.1, respectively. Further, the fold induction at 8 µM in the assay with T-cell [1] was above 1; with T-cell [2], 0.101 to 0.15.

As to `C[C@H](Cc1nncn1C)c1cccc(NC(=O)c2cc(C(=O)N3CC[C@](C)(O)C3)ccn2)c1` [Compound 222, 4-((S)-3-hydroxy-3-methylpyrrolidine-1-carbonyl)-N-(3-((R)-1-(4-methyl-4H-1,2,4-triazol-3-yl)propan-2-yl)phenyl)picolinamide], the negative logarithm of the IC50 (pIC50) at Cbl-b was at least 6.00. Moreover, on Cbl-b (residues 36-427), the negative-log Kd (pKd) was 5.52 to 6.00. In addition, the figures for the fold induction at 1 µM in the assay on T-cell [1] and with T-cell [2] were below 0.6 and below 0.05, respectively. The values for the fold induction at 8 µM in the assay with T-cell [1] and with T-cell [2] were below 0.6 and below 0.05, respectively.

As to `C[C@H](Cc1nncn1C)c1cccc(NC(=O)c2cc(C(=O)N3C[C@@H](O)C[C@H]3C)ccn2)c1` [Compound 224, 4-((2R,4S)-4-hydroxy-2-methylpyrrolidine-1-carbonyl)-N-(3-((R)-1-(4-methyl-4H-1,2,4-triazol-3-yl)propan-2-yl)phenyl)picolinamide], the pIC50 on Cbl-b is at least 6.30. The pKd at Cbl-b (residues 36-427) was 6.00 to 6.52. In the assay with T-cell [1], the fold induction at 1 µM is below 0.6 and the fold induction at 8 µM was below 0.6. Moreover, in the assay on T-cell [2], the fold induction at 1 µM was 0.101 to 0.15 and the fold induction at 8 µM is 0.101 to 0.15.

`C[C@H](Cc1nncn1C)c1cccc(NC(=O)c2cc(C(=O)N3C[C@@H](O)[C@H](F)C3)ccn2)c1` [Compound 240, 4-((3R,4R)-3-fluoro-4-hydroxypyrrolidine-1-carbonyl)-N-(3-((K)-1-(4-methyl-4H-1,2,4-triazol-3-yl)propan-2-yl)phenyl)picolinamide]: the pIC50 on Cbl-b was at least 6.30. In addition, the negative-log Kd (pKd) at Cbl-b (residues 36-427) is 6.52 to 7.00. Moreover, the fold induction at 1 µM in the assay on T-cell [1] lay within 0.601 to 0.8; in the assay on T-cell [2], 0.151 to 0.2. The fold induction at 8 µM was 0.801 to 1 in the assay with T-cell [1] and above 0.201 in the assay with T-cell [2].

Regarding `C[C@H](Cc1nncn1C)c1cccc(NC(=O)c2cc(C(=O)N3CC(O)C(F)(F)C3)ccn2)c1` (stereo partly drawn) [Compound 243, 4-(3,3-difluoro-4-hydroxypyrrolidine-1-carbonyl)-N-[3-[(2R)-1-(4-methyl-4H-1,2,4-triazol-3-yl)propan-2-yl]phenyl]pyridine-2-carboxamide], on Cbl-b, the pIC50 was at least 6.30. Further, on Cbl-b (residues 36-427), the pKd is below 5.00. Further, in the assay on T-cell [1], the fold induction at 1 µM was in the range of 0.601 to 0.8 and the fold induction at 8 µM lay within 0.801 to 1. Further, in the assay with T-cell [2], the fold induction at 1 µM is above 0.201 and the fold induction at 8 µM is above 0.201.

Take `CCn1cnnc1C[C@@H](C)c1cccc(NC(=O)c2cc(C(=O)N3C[C@@H](O)C[C@H]3C)ccn2)c1` [Compound 251, N-(3-((R)-1-(4-ethyl-4H-1,2,4-triazol-3-yl)propan-2-yl)phenyl)-4-((2R,4S)-4-hydroxy-2-methylpyrrolidine-1-carbonyl)picolinamide]: the negative-log IC50 (pIC50) at Cbl-b is at least 6.00. Besides, the negative-log Kd (pKd) at Cbl-b (residues 36-427) is 5.52 to 6.00. Also, in the assay with T-cell [1], the fold induction at 1 µM is 0.601 to 0.8 and the fold induction at 8 µM fell in the range of 0.601 to 0.8. For the same molecule, in the assay with T-cell [2], the fold induction at 1 µM lay in the range of 0.151 to 0.2 and the fold induction at 8 µM lay within 0.151 to 0.2.

As for `C[C@H](Cc1nncn1C)c1cccc(N2Cc3c(Br)cccc3C2=O)c1` [Compound 256, (R)-4-bromo-2-(3-(1-(4-methyl-4H-1,2,4-triazol-3-yl)propan-2-yl)phenyl)isoindolin-1-one], the negative logarithm of the IC50 (pIC50) on Cbl-b is at least 6.30. At Cbl-b (residues 36-427), this molecule showed a negative logarithm of the Kd (pKd) of 6.52 to 7.00. For the same molecule, in the assay with T-cell [1], the fold induction at 1 µM was in the range of 0.801 to 1 and the fold induction at 8 µM was in the range of 0.801 to 1. Besides, in the assay with T-cell [2], the fold induction at 1 µM is above 0.201 and the fold induction at 8 µM was above 0.201.

For the molecule `C[C@H](Cc1nncn1C)c1cccc(N2Cc3c(ccnc3C3CC3)C2=O)c1` [Compound 257, 4-cyclopropyl-2-[3-[(1R)-1-methyl-2-(4-methyl-1,2,4-triazol-3-yl)ethyl]phenyl]-3H-pyrrolo[3,4-c]pyridin-1-one], on Cbl-b, the pIC50 is at least 6.30. Moreover, the negative logarithm of the Kd (pKd) on Cbl-b (residues 36-427) was 6.00 to 6.52. Also, in the assay with T-cell [1], the fold induction at 1 µM was 0.601 to 0.8 and the fold induction at 8 µM is above 1. Also, in the assay with T-cell [2], the fold induction at 1 µM fell in the range of 0.151 to 0.2 and the fold induction at 8 µM was above 0.201.

As for `C[C@H](Cc1nncn1C)c1cccc(N2Cc3c(ccnc3C3CCC3)C2=O)c1` [Compound 258, (R)-4-cyclobutyl-2-(3-(1-(4-methyl-4H-1,2,4-triazol-3-yl)propan-2-yl)phenyl)-2,3-dihydropyrrolo[3,4-c]pyridin-1-one], the pIC50 on Cbl-b is at least 6.30. For the same molecule, on Cbl-b (residues 36-427), the negative-log Kd (pKd) is 5.00 to 5.52. Also, in the assay on T-cell [1], the fold induction at 1 µM was above 1 and the fold induction at 8 µM was above 1. Moreover, in the assay with T-cell [2], the fold induction at 1 µM lay within 0.051 to 0.1 and the fold induction at 8 µM was 0.101 to 0.15.

For the molecule `C[C@H](Cc1nnc[nH]1)c1cccc(N2Cc3c(cccc3C(F)(F)F)C2=O)c1` [Compound 262, (R)-2-(3-(1-(4H-1,2,4-triazol-3-yl)propan-2-yl)phenyl)-4-(trifluoromethyl)isoindolin-1-one], the pIC50 on Cbl-b was at least 6.30. This molecule gave a pKd on Cbl-b (residues 36-427) of 6.00 to 6.52. The fold induction at 1 µM in the assay on T-cell [1] was below 0.6; with T-cell [2], below 0.05. For the same molecule, the fold induction at 8 µM in the assay with T-cell [1] is below 0.6; with T-cell [2], below 0.05.

On to `C[C@H](Cc1nncn1C1CC1)c1cccc(N2Cc3c(cccc3C(F)(F)F)C2=O)c1` [Compound 265, (R)-2-(3-(1-(4-cyclopropyl-4H-1,2,4-triazol-3-yl)propan-2-yl)phenyl)-4-(trifluoromethyl)isoindolin-1-one], for which the pIC50 on Cbl-b was at least 6.00. At Cbl-b (residues 36-427), this molecule showed a pKd of 5.00 to 5.52. The fold induction at 1 µM with T-cell [1] is 0.601 to 0.8; in the assay on T-cell [2], below 0.05. In addition, the fold induction at 8 µM in the assay on T-cell [1] was 0.801 to 1; in the assay with T-cell [2] it was below 0.05.

With `Cc1[nH]cnc1CC(C)c1cccc(N2Cc3c(cccc3C(F)(F)F)C2=O)c1` (stereo not drawn) [Compound 272, 2-[3-[1-(5-methyl-1H-imidazol-4-yl)propan-2-yl]phenyl]-4-(trifluoromethyl)isoindolin-1-one], the pIC50 at Cbl-b is at least 6.30. The molecule also showed a negative-log Kd (pKd) on Cbl-b (residues 36-427) of 5.00 to 5.52. For the same molecule, in the assay with T-cell [1], the fold induction at 1 µM was below 0.6 and the fold induction at 8 µM is below 0.6. In the assay with T-cell [2], the fold induction at 1 µM fell in the range of 0.101 to 0.15 and the fold induction at 8 µM was in the range of 0.101 to 0.15.
